Laboratory results: BindingDB's records for doi:10.1016/S0045-2068(03)00026-9 (Keio University, 2003)
pIC50: −log10 of the molar value.

Target: T1, Polyphenol oxidase 2 (Agaricus bisporus, UniProt O42713)
T1 sequence (O42713 whole entry): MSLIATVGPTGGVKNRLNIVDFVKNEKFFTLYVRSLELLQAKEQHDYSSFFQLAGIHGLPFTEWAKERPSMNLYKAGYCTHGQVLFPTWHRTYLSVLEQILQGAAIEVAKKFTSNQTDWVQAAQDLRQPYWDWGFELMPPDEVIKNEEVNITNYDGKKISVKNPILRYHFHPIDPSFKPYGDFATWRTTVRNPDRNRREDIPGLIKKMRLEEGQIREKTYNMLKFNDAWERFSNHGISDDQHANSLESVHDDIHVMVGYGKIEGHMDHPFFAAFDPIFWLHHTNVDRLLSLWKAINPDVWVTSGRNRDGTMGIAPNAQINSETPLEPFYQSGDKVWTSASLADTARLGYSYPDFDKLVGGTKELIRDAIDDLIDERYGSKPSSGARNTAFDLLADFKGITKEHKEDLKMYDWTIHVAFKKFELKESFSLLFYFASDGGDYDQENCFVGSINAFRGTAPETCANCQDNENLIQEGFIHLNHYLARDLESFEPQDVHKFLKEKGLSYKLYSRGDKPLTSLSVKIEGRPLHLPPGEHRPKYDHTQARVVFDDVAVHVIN
Assay: Spectrophotometic Assay
Details: pH 6.8; 30 °C
Description: The IC50 values were obtained from a spectrophotometric assay.

How did the pIC50 turn out when `O=NN(O)Cc1ccccc1O` [N-nitrosohydroxylamine N-substituted, 4] was run?
The pIC50 was 4.72.

`O=NN(O)Cc1cccc(O)c1` [N-nitrosohydroxylamine N-substituted, 5] was tested. Which pIC50 did it give?
The pIC50 was 4.69.

How did the pIC50 turn out when `O=NN(O)Cc1ccc(O)cc1` [N-nitrosohydroxylamine N-substituted, 6] was run?
The pIC50 was 4.86.

`O=NN(O)Cc1ccc(O)cc1O` [N-nitrosohydroxylamine N-substituted, 7] was tested. Which pIC50 did it give?
Its pIC50 is 4.94.

How did the pIC50 turn out when `O=NN(O)Cc1cc(O)ccc1O` [N-nitrosohydroxylamine N-substituted, 8] was run?
Its pIC50 is 4.62.

`O=NN(O)Cc1ccc(Cl)cc1` [N-nitrosohydroxylamine N-substituted, 9] was tested. Which pIC50 did it give?
The pIC50 was 4.88.

How did the pIC50 turn out when `COc1ccc(CN(O)N=O)cc1` [N-nitrosohydroxylamine N-substituted, 10] was run?
The pIC50 was 5.01.

`CC(C)(C)c1ccc(CN(O)N=O)cc1` [N-nitrosohydroxylamine N-substituted, 11] was tested. Which pIC50 did it give?
Its pIC50 is 4.80.
